Reference: patent US6620828B2, “Thiazole compounds and pharmaceutical compositions for inhibiting protein kinases and methods for their use” (Agouron Pharmaceuticals, Inc., priority 1999, dated 2003)

Each compound was assayed on human umbilical vein endothelial cells (HUVEC) (assay: HUVEC proliferation assay). Conditions: Homo sapiens, HUVEC, 10 nM; crude combinatorial urea library; read-out: Inhibition of HUVEC Proliferation % inhibition @ 10 nM.
Format: cell-based
How it was run: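 Exponentially growing HUVEC were serum-starved 24 h (F12K + 1% FBS), pre-treated 1 h with compound (0.1% DMSO final), then stimulated with 6 ng/ml VEGF. Proliferation was read 72 h later by MTT reduction (A595). IC50 came from seven 0.5-log concentrations in triplicate; screens gave % inhibition relative to VEGF-only and starved wells.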

SMILES | inhibition at 0.01 µM [%]
COc1cccc(C(=O)Nc2cccc(-c3csc(-c4sc(NC(=O)NCC#N)nc4N)n3)c2)c1 | -3
COc1cccc(C(=O)Nc2cccc(-c3csc(-c4sc(NC(=O)NCCCN5CCN(C)CC5)nc4N)n3)c2)c1 | -9
COc1cccc(C(=O)Nc2cccc(-c3csc(-c4sc(NC(=O)NCC(=N)N)nc4N)n3)c2)c1 | 27
COc1cccc(C(=O)Nc2cccc(-c3csc(-c4sc(NC(=O)NCc5ccccn5)nc4N)n3)c2)c1 | -5
COc1cccc(C(=O)Nc2cccc(-c3csc(-c4sc(NC(=O)NCCC(=O)O)nc4N)n3)c2)c1 | -1
CCN(CC)CCCC(C)NC(=O)Nc1nc(N)c(-c2nc(-c3cccc(NC(=O)c4cccc(OC)c4)c3)cs2)s1 (stereo not shown) | 7
COc1cccc(C(=O)Nc2cccc(-c3csc(-c4sc(NC(=O)NC5CC(C)(C)NC(C)(C)C5)nc4N)n3)c2)c1 | -13

Same assay, conditions: Homo sapiens, HUVEC, 50 nM; crude combinatorial urea library; read-out: Inhibition of HUVEC Proliferation % inhibition @ 50 nM

SMILES | inhibition at 0.05 µM [%]
COc1cccc(C(=O)Nc2cccc(-c3csc(-c4sc(NC(=O)NCC#N)nc4N)n3)c2)c1 | 3
COc1cccc(C(=O)Nc2cccc(-c3csc(-c4sc(NC(=O)NCCCN5CCN(C)CC5)nc4N)n3)c2)c1 | 67
COc1cccc(C(=O)Nc2cccc(-c3csc(-c4sc(NC(=O)NCC(=N)N)nc4N)n3)c2)c1 | 46
COc1cccc(C(=O)Nc2cccc(-c3csc(-c4sc(NC(=O)NCc5ccccn5)nc4N)n3)c2)c1 | 103
COc1cccc(C(=O)Nc2cccc(-c3csc(-c4sc(NC(=O)NCCC(=O)O)nc4N)n3)c2)c1 | 8
CCN(CC)CCCC(C)NC(=O)Nc1nc(N)c(-c2nc(-c3cccc(NC(=O)c4cccc(OC)c4)c3)cs2)s1 (stereo not shown) | 68
COc1cccc(C(=O)Nc2cccc(-c3csc(-c4sc(NC(=O)NC5CC(C)(C)NC(C)(C)C5)nc4N)n3)c2)c1 | 29

Same assay, conditions: Homo sapiens, HUVEC, Inhibition of HUVEC Proliferation; 50 nM; crude combinatorial urea library; read-out: % inhibition @ 50 nM

SMILES | inhibition at 0.05 µM [%]
COc1cccc(C(=O)Nc2cc(-c3csc(-c4sc(NC(=O)NCCCN(CCO)CCO)nc4N)n3)c(F)cc2F)c1 | 51
COc1cccc(C(=O)Nc2cc(-c3csc(-c4sc(NC(=O)NCCc5ccncc5)nc4N)n3)c(F)cc2F)c1 [drawing 753] | 98
COc1cccc(C(=O)Nc2cc(-c3csc(-c4sc(NC(=O)NCCC(N)=O)nc4N)n3)c(F)cc2F)c1 | 48
COCCNC(=O)Nc1nc(N)c(-c2nc(-c3cc(NC(=O)c4cccc(OC)c4)c(F)cc3F)cs2)s1 | 21
COc1cccc(C(=O)Nc2cc(-c3csc(-c4sc(NC(=O)NCCCn5ccnc5)nc4N)n3)c(F)cc2F)c1 | 6
COc1cccc(C(=O)Nc2cc(-c3csc(-c4sc(NC(=O)NCC(C)(C)CN(C)C)nc4N)n3)c(F)cc2F)c1 | 75
COc1cccc(C(=O)Nc2cc(-c3csc(-c4sc(NC(=O)NCC5CCC=CO5)nc4N)n3)c(F)cc2F)c1 (stereo not shown) | 42

Same assay, conditions: Homo sapiens, HUVEC, Inhibition of HUVEC Proliferation; 50 nM; crude combinatorial urea library; read-out: Inhibition @ 50 nM

SMILES | inhibition at 0.05 µM [%]
COc1cccc(C(=O)Nc2cc(-c3noc(-c4sc(NC(=O)N[C@@H](CC(N)=O)C(N)=O)nc4N)n3)c(F)cc2F)c1 | 86
COc1cccc(C(=O)Nc2cc(-c3noc(-c4sc(NC(=O)NCCCN5CCN(C)CC5)nc4N)n3)c(F)cc2F)c1 | 72
COc1cccc(C(=O)Nc2cc(-c3noc(-c4sc(NC(=O)NC(C)CO)nc4N)n3)c(F)cc2F)c1 (stereo not shown) | 77
COc1cccc(C(=O)Nc2cc(-c3noc(-c4sc(NC(=O)NCCc5ccc(N)cc5)nc4N)n3)c(F)cc2F)c1 | 88
COc1cccc(C(=O)Nc2cc(-c3noc(-c4sc(NC(=O)NCc5ccc(N)cc5)nc4N)n3)c(F)cc2F)c1 | 82
COc1cccc(C(=O)Nc2cc(-c3noc(-c4sc(NC(=O)NCCN5CCNC5=O)nc4N)n3)c(F)cc2F)c1 | -2
COc1cccc(C(=O)Nc2cc(-c3noc(-c4sc(NC(=O)N[C@H]5CC[C@H](O)CC5)nc4N)n3)c(F)cc2F)c1 [drawing 770] | 92
COc1cccc(C(=O)Nc2cc(-c3noc(-c4sc(NC(=O)NCS(=O)(=O)O)nc4N)n3)c(F)cc2F)c1 | 30
COc1cccc(C(=O)Nc2cc(-c3noc(-c4sc(NC(=O)NC5CCN(Cc6ccccc6)CC5)nc4N)n3)c(F)cc2F)c1 | 82
COc1cccc(C(=O)Nc2cc(-c3noc(-c4sc(NC(=O)NCC(C)(C)CO)nc4N)n3)c(F)cc2F)c1 | 104
CCCCN(CC)CCNC(=O)Nc1nc(N)c(-c2nc(-c3cc(NC(=O)c4cccc(OC)c4)c(F)cc3F)no2)s1 | 42
COc1cccc(C(=O)Nc2cc(-c3noc(-c4sc(NC(=O)NCCCN5CCCCC5)nc4N)n3)c(F)cc2F)c1 | -20

Same assay, conditions: Homo sapiens, HUVEC, Table I screening results; 150 nM; crude combinatorial amide library

SMILES | inhibition at 0.15 µM [%]
COc1cc(Nc2nc(N)c(-c3nc(-c4cccc(NC(=O)C(=O)Cc5ccccc5)c4)cs3)s2)cc(OC)c1OC | 20
COc1cc(Nc2nc(N)c(-c3nc(-c4cccc(NC(=O)CCc5ccccc5)c4)cs3)s2)cc(OC)c1OC [drawing 884] | 4
COc1cccc(C(=O)Nc2cccc(-c3csc(-c4sc(Nc5cc(OC)c(OC)c(OC)c5)nc4N)n3)c2)c1 [drawing 999] | 108
CCOC(=O)c1cc(C(=O)Nc2cccc(-c3csc(-c4sc(Nc5cc(OC)c(OC)c(OC)c5)nc4N)n3)c2)cc(C(=O)OCC)c1 | 6
